Measurements reported in US5641760A, “Method of treating candida infection” (Pence, Inc., priority 1994, dated 1997).

How the values were obtained:
[1] = test system: Candida albicans (binding to human buccal epithelial cells); assay: Inhibition of C. albicans whole cell binding to human BECs; format: cell-based; conditions: fungal cells exposed to increasing concentrations, then mixed with BECs
Experimental: Further experiments were carried out to determine the ability of βGalNAc(1-4)βGal-methylester ("GalNAcGal") to inhibit binding between whole BECs and Candida albicans.
C. albicans cells were radiolabelled as previously described by McEachran and Irvin (35, 48), incorporated herein by reference. A loopful of culture from Sabouraud-dextrose agar (GIBCO) was used as a source of inoculum for 10 ml of M9 medium supplemented with 0.4% (w/v) glucose. Cultures were incubated at 25° C. for 12 hours with 150 rpm agitation in G25 Gyrotory shaker (New Brunswick Scientific Co.). Cultures were supplemented with 5 μCi/ml of [^35 S]-L-methionine (New England Nuclear, Boston, Mass.) after 10 hours of incubation. […] The amount of [^35 S]-L-methionine incorporated by the C. albicans cells was determined by filtering 1.0 ml of a 1:100 dilution of washed C. albicans culture through a 0.2 μm polycarbonate filter (Nucleopore Corp., Pleasanton, Calif.) in triplicate, washing with 15 ml of PBS, and placing the filter in scintillation vials with 5.0 ml of Aquasol (New England Nuclear, Massachusettes). The counts per minute were determined with a Beckman LS-150 liquid-scintillation counter. […]
In a similar manner, experiments were carried out testing the ability of βGalNac(1-4)βGal to inhibit binding of C. albicans to BECs. […] Total cell counts were determined using a hemocytometer. […]

[2] = test system: Candida albicans strain #40 fimbriae (enriched fimbriae EF, 66 kDa fimbrial subunit/adhesin protein); assay: Inhibition of fimbriae binding to immobilized βGalNAc(1-4)βGal-BSA conjugate; conditions: plates coated with 10 μg/ml conjugate; read-out: Half-maximal inhibition of fimbriae binding to βGalNAc(1-4)βGal-BSA conjugate
Experimental: Further experiments to determine the specificity of fimbrial binding to GSLs were carried out using a plate binding assay, as described above, but immobilizing on the plates a βGalNAc(1-4)βGal-BSA conjugate, synthesized from βGalNAc(1-4)βGal-O(CH2)8 COOCH3 (Sabesan and Lemieux), as described in Part B, above. The coupling ratio of disaccharide: BSA was 12:1. The protocol utilized for this assay was similar to that employed for the assessment of C. albicans fimbriae binding to GSLs except that the plates were coated with 100 μl/well of a 10 μg/ml solution of synthetic βGalNAc(1-4)βGal-BSA conjugate in 0.01M carbonate buffer, pH 9.5.
Using this assay, it was first determined that fimbriae bind to the βGalNAc(1-4)βGal-BSA conjugate in a saturable, concentration-dependent manner. FIGS. 12A and 12B show the results of experiments in which compounds were tested for ability to inhibit binding of fimbriae to the βGalNAc(1-4)βGal-BSA conjugate. The protocol used in this assay was similar to the one used in the GSL inhibition assay described above, except that the plates were coated with 100 μl/well of a 10 μg/ml solution of synthetic βGalNAc(1-4)βGal-BSA conjugate in 0.01M carbonate buffer, pH 9.5. As depicted in FIG. 12A, βGalNAc(1-4)βGal-methylester ("GalNAcGal") was able to inhibit binding to the GalNAcGal-BSA conjugate in a concentration dependent manner. […]

[3] = test system: Candida albicans fimbriae (binding to human BECs); assay: Inhibition of fimbriae binding to human buccal epithelial cells (BECs); format: cell-based; conditions: fimbriae 50 μg preincubated with competitor 1 h at 37° C.; 2.0×10^5 BECs; competitor concentration not stated
Experimental: The percent inhibition is the inhibition of binding in the presence of the competing antigens with respect to binding observed in the absence of any competitors.
The fimbrial adherence assay was performed using a Manifold filtration apparatus equipped with individual vacuum stopcocks (Model FH 225V, Hoefer Scientific Instruments). Polycarbonate filters, 12 μm pore size (Nucleopore Costar Corp.), were pre-incubated overnight at 4° C. with 50 ml of PBS pH 7.2, containing 0.45% (v/v) Tween 20. The pretreated filters were placed into each chamber and washed with 2.5 ml of PBS. 1 ml containing 2.0×10^5 BECs in PBS was added to each chamber. Enriched fimbriae (100 μl/chamber, ranging from 0 to 80 μg fimbriae protein/ml) in PBS containing 0.05% (v/v) Tween-20 was added to each chamber and incubated with the BECs for 1.5 hours at room temperature. Unbound fimbriae were removed with washes of 2.5 ml of PBS. Mouse anti-C. albicans fimbriae monoclonal antibody (ascites fluid diluted 1:3000 with PBS) was added to the BECs (1.2 ml/chamber) and incubated for 1.5 hour at room temperature. BECs were washed five times with 2.5 ml of PBS. Goat anti-mouse IgG(H+L)-peroxidase conjugates (Jackson Laboratories) diluted 1:5000 with PBS was added (1.0 ml/chamber) and incubated for another hour at room temperature. The cells were then washed seven times with 2.5 ml/chamber of PBS. The polycarbonate filters containing BECs were removed from the filtration manifold and placed into glass scintillation vials. The horseradish peroxidase substrate solution (ABTS) was added to each vial (1 ml/vial) and incubated for 30 min at room temperature on a shaker at 100 rpm. The reaction was stopped by the addition of 4 mM sodium azide (200 μl/vial). The substrate solution was pipetted into Eppendorf tubes and centrifuged at 5,000 g for 3 minutes. Aliquots of the supernatants were pipetted into microtiter wells (200 μl/well) and the resulting absorbance at 405 nm was recorded with a Titertek Multiskan Plus microplate recorder. […]

[4] = test system: Candida albicans strain #40 fimbriae (enriched fimbriae EF, 66 kDa fimbrial subunit/adhesin protein); assay: Thin-layer chromatography plate binding assay of fimbriae to glycosphingolipids; conditions: 10 μg GSL per spot; 100 μg EF/ml; detected with mAb Fm16
Experimental: Bound fimbriae on the TLC plates were visualized with a Protein G affinity-purified anti-C. albicans fimbriae monoclonal antibody, Fm16, obtained from ascites tumor in Balb/c mice as described below and a goat anti-mouse IgG alkaline phosphatase. […] (Lane 2).
The thin-layer chromatography (TLC) plate binding assay was performed as described by Baker et al. (1) with minor modifications. Aluminum-backed silica gel Si60 high performance TLC plates (Merck Kieselgel Si60, no fluorescence indicator, E. Merck, Darmstadt, Germany) were cut to produce 8×2.5 cm plates which were chromatographed with 100% methanol to the top of the plate to remove impurities and the plates were air dried. Glycosphingolipids (GSLs) (10 μg of each GSL) were loaded 1.0 cm above the base of the plate. The following glycosphingolipids purchased from Sigma Co. (St. Louis, Mo.) were used: mono-sialoganglioside (M-GM1), asialoganglioside GM1 (asialo-GM1), asialoganglioside GM2 (asialo-GM2), lactosylcerebroside (LCS), ceramide trihexoside (CTH). GSLs were separated on the TLC plates in chloroform-methanol-water (65:35:8, v/v/v) and air dried. One set of plates was sprayed with 10% sulphuric acid in ethanol and heated at 100°-150° C. for 5-10 min to char the GSLs for visual detection, and the other set was used for the fimbrial binding assay. The four corners of the plate were bent to 90° and the remainder of the assay was done with the TLC plates inverted in all solutions and at room temperature in an incubator shaker (model G25 Gyroshaker, New Brunswick Scientific, New Jersey, U.S.A.) at 20 rpm agitation. The TLC plate was blocked with 50 mM tris-hydroxy-methyl aminomethane pH 7.5 containing 150 mM NaCl (TBS), 0.25% (w/v) gelatin, 3% (w/v) BSA, 5 mM EDTA and 0.05% (v/v) Nonidet P40 in a glass petri dish for 2 hr at room temperature. The blocking solution was aspirated and 10 ml of EF (100 μg EF/ml in 100 mM TBS, pH 7.5) was then added. The fimbriae were allowed to bind to GSLs for 2 hours at room temperature. The plates were gently washed (2×5 min) with 10 ml of 100 mM TBS containing 0.1% (v/v) Tween 20 (TBST). The murine anti-EF monoclonal antibody, Fm16, was diluted 1:200 with TBST and 10 ml was added to the TLC plates. The solution was incubated for 1 hour at room temperature. Unbound antibodies were removed by washing the plates with 10 ml of TBST (2×5 min). The plate was then incubated with 10 ml of goat anti-mouse immunoglobulin G alkaline phosphatase conjugate (Jackson Laboratories) diluted 1:5,000 with TBST for 1 hour at room temperature. The plates were washed (2×5 min.) with 10 ml of TBST. The alkaline phosphatase activity was localized with Nitro Blue Tetrazolium chloride (NBT) and 5-bromo-4-chloro-3-indolyl phosphate (BCIP) dissolved in 100 mM Tris buffer, pH 9.5 containing 100 mM NaCl and 5 mM MgCl2. Color development was quenched by rinsing the TLC plate with deionized water and submerging the plate into a 150 mM EDTA solution pH 8.0 for 3-5 min. The plates were air dried, stored in plastic in the dark until they were photographed.

With `COC(=O)CCCCCCCCO[C@@H]1O[C@H](CO)[C@H](O[C@@H]2O[C@H](CO)[C@H](O)[C@H](O)[C@H]2NC(C)=O)[C@H](O)[C@H]1O` [βGalNAc(1-4)βGal-methylester] the “Inhibition of binding between whole BECs and Candida albicans” value [1] was “inhibited the fungal cell-BEC interaction in a concentration dependent manner”, the IC50 [2] was 8.2 µM and the “Inhibition of C. albicans fimbriae binding to BECs” value [3] was 70%.

For “gangliotriosylceramide: βGalNAc(1-4)βGal(1-4)βGlc(1-1)Cer [asialo-GM2]”, the “Binding of C. albicans fimbriae to glycosphingolipid on TLC plate” value (“Binding of C. albicans fimbriae” below) [4] was “bind specifically”.

For lactosyl cerebroside [LCS], the “Binding of C. albicans fimbriae” value [4] was “failed to bind”.

mono-sialoganglioside [GM1] was tested, and the “Binding of C. albicans fimbriae” value [4] was “failed to bind”.
